Measurements: patent US11072591B2, “Tetrazole compounds and their use in the treatment of tuberculosis” (GLAXOSMITHKLINE INTELLECTUAL PROPERTY DEVELOPMENT LIMITED, priority 2017, dated 2021)
Converted amounts (≈) assume the structure as drawn.

Each compound was assayed on M. tuberculosis H37Rv (assay: Mycobacterium tuberculosis H37Rv Inhibition Assay (Whole Cell Assay), MIC). Conditions: 144 h, M. tuberculosis H37Rv, Middlebrook 7H9 + ADC, 37° C. six days, resazurin readout, read-out: MIC_H37Rv.
Format: cell-based

`O=S(=O)(NCCO)c1ccc(-c2nnn(CC3CCOCC3)n2)cc1F` [Example 78, 2-fluoro-N-(2-hydroxyethyl)-4-(2-((tetrahydro-2H-pyran-4-yl)methyl)-2H-tetrazol-5-yl)benzenesulfonamide] and `O=S(=O)(NCCO)c1ccc(-c2nnn(CC3CCCCC3)n2)cc1F` [Example 79, 4-(2-(cyclohexylmethyl)-2H-tetrazol-5-yl)-2-fluoro-N-(2-hydroxyethyl)benzenesulfonamide] cannot be ordered by MIC: less than 0.1 µM for the first, less than 0.1 µM for the second.

`O=S(=O)(NCCO)c1ccc(-c2nnn(Cc3ccc(F)cn3)n2)c(Cl)c1` [Example 81, 3-chloro-4-(2-((5-fluoropyridin-2-yl)methyl)-2H-tetrazol-5-yl)-N-(2-hydroxyethyl)benzenesulfonamide] and `Cc1cc(S(=O)(=O)NCCO)c(F)cc1-c1nnn(Cc2ccc(F)cn2)n1` [Example 110, 2-fluoro-4-(2-((5-fluoropyridin-2-yl)methyl)-2H-tetrazol-5-yl)-N-(2-hydroxyethyl)-5-methylbenzenesulfonamide] cannot be ordered by MIC: less than 0.1 µM for the first, less than 0.1 µM for the second.

Compared with `N#CCNS(=O)(=O)c1ccc(-c2nnn(CC3CCOCC3)n2)cc1` [Example 89, N-(cyanomethyl)-4-(2-((tetrahydro-2H-pyran-4-yl)methyl)-2H-tetrazol-5-yl)benzenesulfonamide], `O=S(=O)(NCCO)c1ccc(-c2nnn(CC3CCOCC3)n2)cc1` [Example 105, N-(2-hydroxyethyl)-4-(2-((tetrahydro-2H-pyran-4-yl)methyl)-2H-tetrazol-5-yl)benzenesulfonamide] is higher in MIC: less than 0.1 µM for the first, 1 to 5 µM for the second.

`N#CCNS(=O)(=O)c1ccc(-c2nnn(Cc3cnccn3)n2)cc1` [Example 90, N-(cyanomethyl)-4-(2-(pyrazin-2-ylmethyl)-2H-tetrazol-5-yl)benzenesulfonamide] and `Cc1cnc(Cn2nnc(-c3ccc(S(=O)(=O)NCC#N)cc3)n2)cn1` [Example 91, N-(cyanomethyl)-4-(2-((5-methylpyrazin-2-yl)methyl)-2H-tetrazol-5-yl)benzenesulfonamide] cannot be ordered by MIC: less than 0.1 µM for the first, less than 0.1 µM for the second.

First: COc1cnc(Cn2nnc(-c3ccc(S(=O)(=O)NCC#N)cc3)n2)cn1 [Example 92, N-(cyanomethyl)-4-(2-((5-methoxypyrazin-2-yl)methyl)-2H-tetrazol-5-yl)benzenesulfonamide]
Second: COc1ccc(Cn2nnc(-c3ccc(S(=O)(=O)NCC#N)cc3)n2)cn1 [Example 93, N-(cyanomethyl)-4-(2-((6-methoxypyridin-3-yl)methyl)-2H-tetrazol-5-yl)benzenesulfonamide]
The MIC of the first is higher: 1 to 5 µM for the first, less than 0.1 µM for the second.

Compared with `COc1cc(-c2nnn(CC3CCC(F)(F)CC3)n2)ccc1S(=O)(=O)NCC(N)=O` [Example 95, 2-((4-(2-((4,4-difluorocyclohexyl)methyl)-2H-tetrazol-5-yl)-2-methoxyphenyl)sulfonamido)acetamide], `NC(=O)CNS(=O)(=O)c1ccc(-c2nnn(CC3CCCCO3)n2)cc1` (stereo not shown) [Example 96, 2-((4-(2-((tetrahydro-2H-pyran-2-yl)methyl)-2H-tetrazol-5-yl)phenyl)sulfonamido)acetamide] is lower in MIC: 1 to 5 µM for the first, less than 0.1 µM for the second.

Compared with `O=S(=O)(NCCO)c1ccc(-c2nnn(Cc3ccc(OC(F)(F)F)cc3)n2)cc1` [Example 97], `O=S(=O)(NCCO)c1ccc(-c2nnn(Cc3ccc(C(F)(F)F)cc3)n2)cc1` [Example 98] is higher in MIC: 1 to 5 µM for the first, 5 to 10 µM for the second.

`CCOc1ccc(Cn2nnc(-c3ccc(S(=O)(=O)NCCO)cc3)n2)cc1` [Example 99] and `Cc1ccc(Cn2nnc(-c3ccc(S(=O)(=O)NCCO)cc3)n2)cn1` [Example 101, N-(2-hydroxyethyl)-4-(2-((6-methylpyridin-3-yl)methyl)-2H-tetrazol-5-yl)benzenesulfonamide] cannot be ordered by MIC: less than 0.1 µM for the first, less than 0.1 µM for the second.

First: O=S(=O)(NCCO)c1ccc(-c2nnn(CC3CCCCC3)n2)cc1 [Example 100, 4-(2-(cyclohexylmethyl)-2H-tetrazol-5-yl)-N-(2-hydroxyethyl)benzenesulfonamide]
Second: O=S(=O)(NCCO)c1ccc(-c2nnn(CC3CCCOC3)n2)cc1 (stereo not shown) [Example 104, N-(2-hydroxyethyl)-4-(2-((tetrahydro-2H-pyran-3-yl)methyl)-2H-tetrazol-5-yl)benzenesulfonamide]
The MIC of the first is lower: less than 0.1 µM for the first, 5 to 10 µM for the second.

`O=S(=O)(NCCO)c1ccc(-c2nnn(Cc3cccnc3)n2)cc1` [Example 102, N-(2-hydroxyethyl)-4-(2-(pyridin-3-ylmethyl)-2H-tetrazol-5-yl)benzenesulfonamide] and `O=S(=O)(NCCO)c1ccc(-c2nnn(Cc3ccnnc3)n2)cc1` [Example 106, N-(2-hydroxyethyl)-4-(2-(pyridazin-4-ylmethyl)-2H-tetrazol-5-yl)benzenesulfonamide] cannot be ordered by MIC: less than 0.1 µM for the first, less than 0.1 µM for the second.

`CNS(=O)(=O)c1ccc(-c2nnn(Cc3ccc(C#N)cc3)n2)cc1` [Example 108, 4-(2-(4-cyanobenzyl)-2H-tetrazol-5-yl)-N-methylbenzenesulfonamide] and `C[C@@H](c1ccc(F)cn1)n1nnc(-c2ccc(S(=O)(=O)NCCO)cc2)n1` [Example 111] fall in the same range of MIC: 1 to 5 µM for the first, 1 to 5 µM for the second.

`COc1ccc(Cn2nnc(-c3ccc(S(=O)(=O)NCCO)c(OC)c3)n2)nc1` [Example 109, N-(2-hydroxyethyl)-2-methoxy-4-(2-((5-methoxypyridin-2-yl)methyl)-2H-tetrazol-5-yl)benzenesulfonamide] gave an MIC of 1 to 5 µM.

Same assay, conditions: M. tuberculosis H37Rv whole cell assay, value from repeated testing of the compound, read-out: MIC

First: O=S(=O)(NCCO)c1c(F)cc(-c2nnn(Cc3ccc(F)cn3)n2)cc1F [Example 87, 2,6-difluoro-4-(2-((5-fluoropyridin-2-yl)methyl)-2H-tetrazol-5-yl)-N-(2-hydroxyethyl)benzenesulfonamide]
Second: C[C@@H](c1ccc(F)cn1)n1nnc(-c2ccc(S(=O)(=O)NCCO)cc2)n1 [Example 111 (S-isomer), (S)-4-(2-(1-(5-fluoropyridin-2-yl)ethyl)-2H-tetrazol-5-yl)-N-(2-hydroxyethyl)benzenesulfonamide]
The MIC of the first is lower: no more than 0.04 µM for the first, 0.6 to 1.88 µM (≈ 0.235 to 0.736 µg/mL) for the second.
